Source: PMC5218480 (PLoS ONE, 2017)

Test system: MV-4-11 cells
Test: Gene expression microarray analysis (Affymetrix PrimeView) and GSEA
Format: cell-based, human
Set-up: RFU PODN (11730768_x_at) / Fold change /veh PODN (11730768_x_at) / RFU LINC00158 (11744669_a_at) / Fold change /veh LINC00158 (11744669_a_at) / RFU DUSP10 (11751237_a_at) / Fold change /veh DUSP10 (11751237_a_at) / RFU ID3 (11757404_x_at) / Fold change /veh ID3 (11757404_x_at) / RFU PLEKHG5 (11737974_s_at) / Fold change /veh PLEKHG5 (11737974_s_at) / RFU LRRC4B (11730491_at) / Fold change /veh LRRC4B (11730491_at) / RFU GIMAP4 (11747438_a_at) / Fold change /veh GIMAP4 (11747438_a_at) / RFU KRT8 (11758183_x_at) / Fold change /veh KRT8 (11758183_x_at) / RFU CNN1 (11734310_a_at) / Fold change /veh CNN1 (11734310_a_at) / RFU VPS37D (11726825_at) / Fold change /veh VPS37D (11726825_at) / RFU C10orf10 (11716522_x_at) / Fold change /veh C10orf10 (11716522_x_at) / RFU KIR2DL2 /// KIR2DL4 /// KIR2DL5A /// KIR2DL5B /// KIR2DS1 /// KIR2DS2 /// KIR2DS3 /// KIR2DS4 /// KIR3DL3 /// KIR3DL3 /// KIR3DS1 (11738374_at) / Fold change /veh KIR2DL2 /// KIR2DL4 /// KIR2DL5A /// KIR2DL5B /// KIR2DS1 /// KIR2DS2 /// KIR2DS3 /// KIR2DS4 /// KIR3DL3 /// KIR3DL3 /// KIR3DS1 (11738374_at) / RFU C1QL1 (11718748_at) / Fold change /veh C1QL1 (11718748_at) / RFU TMPRSS4 (11747572_a_at) / Fold change /veh TMPRSS4 (11747572_a_at) / RFU HAMP (11756126_x_at) / Fold change /veh HAMP (11756126_x_at) / RFU RNFT2 (11725882_a_at) / Fold change /veh RNFT2 (11725882_a_at) / RFU NR4A2 (11747474_a_at) / Fold change /veh NR4A2 (11747474_a_at) / RFU ABCC12 (11746883_a_at) / Fold change /veh ABCC12 (11746883_a_at) / RFU TMEM136 (11760407_x_at) / Fold change /veh TMEM136 (11760407_x_at) / RFU CLDN22 /// WWC2 (11732394_at) / Fold change /veh CLDN22 /// WWC2 (11732394_at) / RFU HLA-DPB1 (11760878_x_at) / Fold change /veh HLA-DPB1 (11760878_x_at) / RFU SPINT1 (11716480_a_at) / Fold change /veh SPINT1 (11716480_a_at) / RFU GAP43 (11754022_s_at) / Fold change /veh GAP43 (11754022_s_at) / RFU A4GNT (11735810_at) / Fold change /veh A4GNT (11735810_at) / RFU PRB3 (11715151_x_at) / Fold change /veh PRB3 (11715151_x_at) / RFU TUBB4B (11761932_at) / Fold change /veh TUBB4B (11761932_at) / RFU CAPN14 (11732068_a_at) / Fold change /veh CAPN14 (11732068_a_at) / RFU TMCC2 (11721928_a_at) / Fold change /veh TMCC2 (11721928_a_at) / RFU IRGQ (11745062_a_at) / Fold change /veh IRGQ (11745062_a_at) / RFU FAM174B (11720279_a_at) / Fold change /veh FAM174B (11720279_a_at) / RFU TMPRSS4 (11748680_a_at) / Fold change /veh TMPRSS4 (11748680_a_at) / RFU FAM212B (11763350_a_at) / Fold change /veh FAM212B (11763350_a_at) / RFU PLEKHG5 (11743358_a_at) / Fold change /veh PLEKHG5 (11743358_a_at) / RFU ZSCAN30 (11745921_a_at) / Fold change /veh ZSCAN30 (11745921_a_at) / RFU CMKLR1 (11741424_a_at) / Fold change /veh CMKLR1 (11741424_a_at) / RFU LOC101060620 /// MAPK8IP1 (11723275_at) / Fold change /veh LOC101060620 /// MAPK8IP1 (11723275_at) / RFU SPTSSB (11747773_x_at) / Fold change /veh SPTSSB (11747773_x_at) / RFU PRSS12 (11739890_at) / Fold change /veh PRSS12 (11739890_at) / RFU BIN1 (11741810_x_at) / Fold change /veh BIN1 (11741810_x_at) / RFU WNT11 (11732464_a_at) / Fold change /veh WNT11 (11732464_a_at) / RFU C10orf10 (11716521_a_at) / Fold change /veh C10orf10 (11716521_a_at) / RFU C5orf56 (11738089_at) / Fold change /veh C5orf56 (11738089_at) / RFU CYB561 (11721691_x_at) / Fold change /veh CYB561 (11721691_x_at) / RFU ANKRD19P (11752326_a_at) / Fold change /veh ANKRD19P (11752326_a_at) / RFU OR2T12 /// OR2T33 /// OR2T8 (11738714_s_at) / Fold change /veh OR2T12 /// OR2T33 /// OR2T8 (11738714_s_at) / RFU VCAN (11748164_a_at) / Fold change /veh VCAN (11748164_a_at) / RFU JSRP1 (11732532_at) / Fold change /veh JSRP1 (11732532_at) / RFU KRTAP10-11 (11738290_x_at) / Fold change /veh KRTAP10-11 (11738290_x_at) / RFU MYO3A (11730013_a_at) / Fold change /veh MYO3A (11730013_a_at) / RFU EBF3 (11725865_a_at) / Fold change /veh EBF3 (11725865_a_at) / RFU CAMK2N1 (11719241_x_at) / Fold change /veh CAMK2N1 (11719241_x_at) / RFU C5orf56 (11738088_a_at) / Fold change /veh C5orf56 (11738088_a_at) / RFU OLFML3 (11715873_a_at) / Fold change /veh OLFML3 (11715873_a_at) / RFU LOC100653217 /// NTM (11731650_a_at) / Fold change /veh LOC100653217 /// NTM (11731650_a_at) / RFU MAPK11 (11762145_a_at) / Fold change /veh MAPK11 (11762145_a_at) / RFU FIZ1 (11724087_x_at) / Fold change /veh FIZ1 (11724087_x_at) / RFU OASL (11726364_x_at) / Fold change /veh OASL (11726364_x_at) / RFU SOX15 (11748057_x_at) / Fold change /veh SOX15 (11748057_x_at) / RFU CD79A (11719716_a_at) / Fold change /veh CD79A (11719716_a_at) / RFU HIST1H1D (11736915_at) / Fold change /veh HIST1H1D (11736915_at) / RFU CASKIN2 (11723855_a_at) / Fold change /veh CASKIN2 (11723855_a_at) / RFU LOC730098 (11760151_x_at) / Fold change /veh LOC730098 (11760151_x_at) / RFU OR4N2 (11742367_at) / Fold change /veh OR4N2 (11742367_at) / RFU PRRT2 (11749266_a_at) / Fold change /veh PRRT2 (11749266_a_at) / RFU SNX32 (11753110_a_at) / Fold change /veh SNX32 (11753110_a_at) / RFU CDHR5 (11726645_a_at) / Fold change /veh CDHR5 (11726645_a_at) / RFU RCAN1 (11760418_a_at) / Fold change /veh RCAN1 (11760418_a_at) / RFU FAM167A (11723789_a_at) / Fold change /veh FAM167A (11723789_a_at) / RFU FAM26E (11764081_at) / Fold change /veh FAM26E (11764081_at) / RFU ISYNA1 (11749810_s_at) / Fold change /veh ISYNA1 (11749810_s_at) / RFU ACY1 (11761880_at) / Fold change /veh ACY1 (11761880_at) / RFU 11764098_at / Fold change /veh 11764098_at / RFU SAMD14 (11745864_x_at) / Fold change /veh SAMD14 (11745864_x_at) / RFU NPB (11741838_a_at) / Fold change /veh NPB (11741838_a_at) / RFU TMPRSS6 (11731388_a_at) / Fold change /veh TMPRSS6 (11731388_a_at) / RFU KRTAP10-2 (11738614_at) / Fold change /veh KRTAP10-2 (11738614_at) / RFU ARHGAP8 /// PRR5-ARHGAP8 (11727945_x_at) / Fold change /veh ARHGAP8 /// PRR5-ARHGAP8 (11727945_x_at) / RFU KRTAP5-7 /// NADSYN1 (11734609_at) / Fold change /veh KRTAP5-7 /// NADSYN1 (11734609_at) / RFU RASL12 (11751679_a_at) / Fold change /veh RASL12 (11751679_a_at) / RFU CDKN2B (11736163_a_at) / Fold change /veh CDKN2B (11736163_a_at) / RFU PRF1 (11729649_at) / Fold change /veh PRF1 (11729649_at) / RFU, ZNF638 /// ZNF638-IT1 / Fold change vs veh, ZNF638 /// ZNF638-IT1 / RFU, PANK3 / Fold change vs veh, PANK3 / RFU, SH3YL1 / Fold change vs veh, SH3YL1 / RFU, ZEB2 / Fold change vs veh, ZEB2 / RFU, NRIP1 / Fold change vs veh, NRIP1 / RFU, PTTG1IP / Fold change vs veh, PTTG1IP / RFU, CAPN2 / Fold change vs veh, CAPN2 / RFU, MED14 / Fold change vs veh, MED14 / RFU, SNORA58 / Fold change vs veh, SNORA58 / RFU, C1orf63 / Fold change vs veh, C1orf63 / RFU, LRRFIP1 / Fold change vs veh, LRRFIP1 / RFU, NDUFAF7 / Fold change vs veh, NDUFAF7 / RFU, SLC12A2 / Fold change vs veh, SLC12A2 / RFU, IBTK / Fold change vs veh, IBTK / RFU, ESF1 / Fold change vs veh, ESF1 / Fold change vs veh, TMEM50B / RFU, TAOK1 / Fold change vs veh, TAOK1 / RFU, ACBD3 / Fold change vs veh, ACBD3 / RFU, TMA16 / Fold change vs veh, TMA16 / RFU, RWDD3 / Fold change vs veh, RWDD3 / RFU, BCAT1 / Fold change vs veh, BCAT1 / RFU, EDEM3 / Fold change vs veh, EDEM3 / RFU, TMEM33 / Fold change vs veh, TMEM33 / RFU, WDR75 / Fold change vs veh, WDR75 / RFU, AHCTF1 / Fold change vs veh, AHCTF1 / RFU, TFRC / Fold change vs veh, TFRC / RFU, ZDHHC17 / Fold change vs veh, ZDHHC17 / RFU, NOM1 / Fold change vs veh, NOM1 / RFU, ARL8B / Fold change vs veh, ARL8B / RFU, ZBTB11 / Fold change vs veh, ZBTB11 / RFU, TAMM41 / Fold change vs veh, TAMM41 / RFU, KIAA1704 /// LOC100996395 / Fold change vs veh, KIAA1704 /// LOC100996395 / RFU, ING1 / Fold change vs veh, ING1 / RFU, TRMT61B / Fold change vs veh, TRMT61B / RFU, FUBP3 / Fold change vs veh, FUBP3 / RFU, TP53 / Fold change vs veh, TP53 / RFU, TNKS2 / Fold change vs veh, TNKS2 / RFU, ZFP14 / Fold change vs veh, ZFP14 / RFU, ACTR2 / Fold change vs veh, ACTR2 / RFU, PPP3R1 / Fold change vs veh, PPP3R1 / RFU, PIK3R1 / Fold change vs veh, PIK3R1 / RFU, HNRNPA1 / Fold change vs veh, HNRNPA1 / RFU, RNF170 / Fold change vs veh, RNF170 / RFU, ZNF28 / Fold change vs veh, ZNF28 / RFU, RNGTT / Fold change vs veh, RNGTT / RFU, OGT / Fold change vs veh, OGT / RFU, BRD1 / Fold change vs veh, BRD1 / RFU, MARS / Fold change vs veh, MARS / RFU, ZNF655 / Fold change vs veh, ZNF655 / RFU, FAHD1 / Fold change vs veh, FAHD1 / RFU, BDP1 / Fold change vs veh, BDP1 / RFU, LRRCC1 / Fold change vs veh, LRRCC1 / RFU, ARID1A / Fold change vs veh, ARID1A / RFU, ZNF146 / Fold change vs veh, ZNF146 / RFU, ZNF330 / Fold change vs veh, ZNF330 / RFU, GPN3 / Fold change vs veh, GPN3 / RFU, C9orf123 / Fold change vs veh, C9orf123 / RFU, N4BP2L2 / Fold change vs veh, N4BP2L2 / RFU, ARFIP1 / Fold change vs veh, ARFIP1 / RFU, FAM179B / Fold change vs veh, FAM179B / RFU, BCL10 / Fold change vs veh, BCL10 / RFU, UHRF1BP1L / Fold change vs veh, UHRF1BP1L / RFU, BET1 / Fold change vs veh, BET1 / RFU, CNOT2 / Fold change vs veh, CNOT2 / RFU, ZNF268 / Fold change vs veh, ZNF268 / Fold change vs veh, ZNF507 / RFU, DGCR2 / Fold change vs veh, DGCR2 / RFU, WDSUB1 / Fold change vs veh, WDSUB1 / Fold change vs veh, HSP90B1 /// MIR3652 / RFU, ADSS / Fold change vs veh, ADSS / RFU, GK / Fold change vs veh, GK / RFU, ZNF148 / Fold change vs veh, ZNF148 / RFU, TAF9 / Fold change vs veh, TAF9 / RFU, SLC1A5 / Fold change vs veh, SLC1A5 / RFU, SLMO2 / Fold change vs veh, SLMO2 / RFU, ABCC4 / Fold change vs veh, ABCC4 / RFU, LOC101060439 /// RAP1B / Fold change vs veh, LOC101060439 /// RAP1B / RFU, RFX7 / Fold change vs veh, RFX7 / RFU, GTPBP10 / Fold change vs veh, GTPBP10 / RFU, CNEP1R1 / Fold change vs veh, CNEP1R1 / RFU, BIVM-ERCC5 /// ERCC5 / Fold change vs veh, BIVM-ERCC5 /// ERCC5 / RFU, ILF3 / Fold change vs veh, ILF3 / RFU 11762660_at / Fold change /veh 11762660_at / RFU VCAN (11757783_s_at) / Fold change /veh VCAN (11757783_s_at) / RFU DDX43 (11728927_at) / Fold change /veh DDX43 (11728927_at) / RFU KRT8 (11758188_x_at) / Fold change /veh KRT8 (11758188_x_at) / RFU NKD1 (11759106_at) / Fold change /veh NKD1 (11759106_at) / RFU SRD5A1 (11742802_a_at) / Fold change /veh SRD5A1 (11742802_a_at) / RFU TPSAB1 /// TPSB2 (11721975_s_at) / Fold change /veh TPSAB1 /// TPSB2 (11721975_s_at) / RFU GSTM3 (11746129_a_at) / Fold change /veh GSTM3 (11746129_a_at) / RFU IL23R (11737362_x_at) / Fold change /veh IL23R (11737362_x_at) / RFU TMEM51 (11727254_a_at) / Fold change /veh TMEM51 (11727254_a_at) / RFU PIWIL2 (11732686_x_at) / Fold change /veh PIWIL2 (11732686_x_at) / RFU ORM1 (11744905_x_at) / Fold change /veh ORM1 (11744905_x_at) / RFU CCDC152 (11743942_at) / Fold change /veh CCDC152 (11743942_at) / RFU ECM1 (11717891_a_at) / Fold change /veh ECM1 (11717891_a_at) / RFU IL23R (11748794_a_at) / Fold change /veh IL23R (11748794_a_at) / RFU TNFAIP8L3 (11732012_x_at) / Fold change /veh TNFAIP8L3 (11732012_x_at) / RFU MBOAT4 (11741988_at) / Fold change /veh MBOAT4 (11741988_at) / RFU 11764193_at / Fold change /veh 11764193_at / RFU TMEM53 (11763286_at) / Fold change /veh TMEM53 (11763286_at) / RFU MAGEB2 (11727129_at) / Fold change /veh MAGEB2 (11727129_at) / RFU TMEM200A (11744735_a_at) / Fold change /veh TMEM200A (11744735_a_at) / RFU CCDC152 (11751479_a_at) / Fold change /veh CCDC152 (11751479_a_at) / RFU FAM211A (11726209_a_at) / Fold change /veh FAM211A (11726209_a_at) / RFU RGS16 (11746705_a_at) / Fold change /veh RGS16 (11746705_a_at) / RFU VCAN (11755009_s_at) / Fold change /veh VCAN (11755009_s_at) / RFU RHOB (11743442_s_at) / Fold change /veh RHOB (11743442_s_at) / RFU RGS16 (11720943_a_at) / Fold change /veh RGS16 (11720943_a_at) / RFU RGS16 (11720944_at) / Fold change /veh RGS16 (11720944_at) / RFU, VPS4B / Fold change vs veh, VPS4B / RFU, CREB1 / Fold change vs veh, CREB1 / RFU, DNAJC13 / Fold change vs veh, DNAJC13 / RFU, GNAQ / Fold change vs veh, GNAQ / RFU, CDK5R1 / Fold change vs veh, CDK5R1 / RFU, ZRANB3 / Fold change vs veh, ZRANB3 / RFU, CUL4A / Fold change vs veh, CUL4A / RFU, CCNY / Fold change vs veh, CCNY / RFU, UFL1 / Fold change vs veh, UFL1 / RFU, COG3 / Fold change vs veh, COG3 / RFU, DIAPH2 / Fold change vs veh, DIAPH2 / RFU, SKA2 / Fold change vs veh, SKA2 / RFU, AFF3 / Fold change vs veh, AFF3 / RFU, LMF1 / Fold change vs veh, LMF1 / RFU, IPO11 / Fold change vs veh, IPO11 / RFU, DFFB / Fold change vs veh, DFFB / RFU, FOXP1 / Fold change vs veh, FOXP1 / RFU, CARD8 / Fold change vs veh, CARD8 / RFU, STRN3 / Fold change vs veh, STRN3 / RFU, ADK / Fold change vs veh, ADK / RFU, RASSF2 / Fold change vs veh, RASSF2 / RFU, WIPF1 / Fold change vs veh, WIPF1 / RFU, LARP1B / Fold change vs veh, LARP1B / RFU, RASA1 / Fold change vs veh, RASA1 / RFU, RB1 / Fold change vs veh, RB1 / RFU, PPFIA1 / Fold change vs veh, PPFIA1 / RFU, MAT2A / Fold change vs veh, MAT2A / RFU, CCT5 / Fold change vs veh, CCT5 / RFU, WDR92 / Fold change vs veh, WDR92 / RFU, CUX1 / Fold change vs veh, CUX1 / RFU, TTC7A / Fold change vs veh, TTC7A / RFU, TMEM135 / Fold change vs veh, TMEM135 / RFU, DEPTOR / Fold change vs veh, DEPTOR / RFU, CPM / Fold change vs veh, CPM / RFU, DNAJB6 / Fold change vs veh, DNAJB6 / RFU, CACNA2D3 / Fold change vs veh, CACNA2D3 / RFU, DTX4 / Fold change vs veh, DTX4 / RFU, TFCP2 / Fold change vs veh, TFCP2 / RFU, GMCL1 /// GMCL1P1 / Fold change vs veh, GMCL1 /// GMCL1P1 / RFU, AEBP2 / Fold change vs veh, AEBP2 / RFU, SNHG1 /// SNORD22 /// SNORD25 /// SNORD26 /// SNORD27 /// SNORD28 /// SNORD29 /// SNORD31 / Fold change vs veh, SNHG1 /// SNORD22 /// SNORD25 /// SNORD26 /// SNORD27 /// SNORD28 /// SNORD29 /// SNORD31 / Fold change (Aza/veh), C12orf56 (ProbeSet 11735607_a_at) / Fold change (ACY-1035/veh), C12orf56 (ProbeSet 11735607_a_at) / Fold change (Aza/veh), FGFR1OP (ProbeSet 11751329_s_at) / Fold change (ACY-1035/veh), FGFR1OP (ProbeSet 11751329_s_at) / Fold change (Aza/veh), VPS36 (ProbeSet 11739960_a_at) / Fold change (ACY-1035/veh), VPS36 (ProbeSet 11739960_a_at) / RFU SYPL1 (11715823_x_at) / Fold change /veh SYPL1 (11715823_x_at) / RFU IGFBP7 (11715501_s_at) / Fold change /veh IGFBP7 (11715501_s_at) / RFU REEP3 (11722064_at) / Fold change /veh REEP3 (11722064_at) / RFU IGLL1 (11728026_x_at) / Fold change /veh IGLL1 (11728026_x_at): dose or concentration left out as unconfirmed
Settings: MV-4-11 cells, 48 hours

Nc1ncn([C@@H]2O[C@H](CO)[C@@H](O)[C@H]2O)c(=O)n1 [azacitidine]
RFU KRTAP5-7 /// NADSYN1 (11734609_at): 11.87 RFU
